# Experimental data as given in ChEMBL document CHEMBL4316596, “Antimicrobial Peptides with High Proteolytic Resistance for Combating Gram-Negative Bacteria” (J Med Chem, 2019).
# Tests used:
# Klebsiella pneumoniae [1] = test: Antimicrobial activity against Klebsiella pneumoniae after 24 hrs by NCCLS-protocol based assay; assay type: functional
# Pseudomonas aeruginosa [2] = test: Bactericidal activity against Pseudomonas aeruginosa CICC 21625 clinical isolates incubated for 4 hrs followed by culture spread on agar plates and cultured overnight; assay type: functional; conditions: CICC 21625, 4 h, read-out: MBC>99.9
# Pseudomonas aeruginosa [3] = test: Antimicrobial activity against Pseudomonas aeruginosa ATCC 27853 after 24 hrs by NCCLS-protocol based assay; assay type: functional; conditions: ATCC 27853, 24 h
# Salmonella typhimurium [4] = test: Antimicrobial activity against Salmonella typhimurium C7731 after 24 hrs by NCCLS-protocol based assay; assay type: functional, Salmonella enterica subsp. enterica serovar Typhimurium; conditions: Salmonella enterica, C7731, 24 h
# Acinetobacter baumannii [5] = test: Bactericidal activity against Acinetobacter baumannii incubated for 4 hrs followed by culture spread on agar plates and cultured overnight; assay type: functional; conditions: read-out: MBC>99.9
# Escherichia coli [6] = test: Antimicrobial activity against Escherichia coli ATCC 25922 after 24 hrs by NCCLS-protocol based assay; assay type: functional; conditions: ATCC 25922, 24 h
# Pseudomonas aeruginosa [7] = test: Antimicrobial activity against Pseudomonas aeruginosa CICC 21630 clinical isolates after 24 hrs by NCCLS-protocol based assay; assay type: functional; conditions: CICC 21630, 24 h
# Salmonella typhimurium [8] = test: Antimicrobial activity against Salmonella typhimurium ATCC 14028 after 24 hrs by NCCLS-protocol based assay; assay type: functional, Salmonella enterica subsp. enterica serovar Typhimurium; conditions: Salmonella enterica, ATCC 14028, 24 h
# Escherichia coli [9] = test: Antimicrobial activity against Escherichia coli UB1005 after 24 hrs by NCCLS-protocol based assay; assay type: functional; conditions: UB1005, 24 h
# Pseudomonas aeruginosa [10] = test: Bactericidal activity against Pseudomonas aeruginosa 26305 clinical isolates incubated for 4 hrs followed by culture spread on agar plates and cultured overnight; assay type: functional; conditions: Pseudomonas aeruginosa, 26305, 4 h; read-out: MBC>99.9
# Pseudomonas aeruginosa [11] = test: Antimicrobial activity against Pseudomonas aeruginosa 25349 clinical isolates after 24 hrs by NCCLS-protocol based assay; assay type: functional; conditions: Pseudomonas aeruginosa, 25349, 24 h
# Pseudomonas aeruginosa [12] = test: Bactericidal activity against Pseudomonas aeruginosa ATCC 27853 incubated for 4 hrs followed by culture spread on agar plates and cultured overnight; assay type: functional; conditions: ATCC 27853, 4 h, read-out: MBC>99.9
# Pseudomonas aeruginosa [13] = test: Antimicrobial activity against Pseudomonas aeruginosa 26305 clinical isolates after 24 hrs by NCCLS-protocol based assay; assay type: functional; conditions: Pseudomonas aeruginosa, 26305, 24 h
# Escherichia coli [14] = test: Antimicrobial activity against Escherichia coli K88 after 24 hrs by NCCLS-protocol based assay; assay type: functional; conditions: K88, 24 h
# [15] = Antimicrobial activity against Salmonella pullorum C7913 after 24 hrs by NCCLS-protocol based assay; assay type: functional, Salmonella enterica subsp. enterica serovar Pullorum; conditions: Salmonella enterica, C7913, 24 h
# Pseudomonas aeruginosa [16] = test: Bactericidal activity against Pseudomonas aeruginosa 25349 clinical isolates incubated for 4 hrs followed by culture spread on agar plates and cultured overnight; assay type: functional; conditions: Pseudomonas aeruginosa, 25349, 4 h; read-out: MBC>99.9
# Acinetobacter baumannii [17] = test: Antimicrobial activity against Acinetobacter baumannii after 24 hrs by NCCLS-protocol based assay; assay type: functional
# Pseudomonas aeruginosa [18] = test: Bactericidal activity against Pseudomonas aeruginosa CICC 21630 clinical isolates incubated for 4 hrs followed by culture spread on agar plates and cultured overnight; assay type: functional; conditions: CICC 21630, 4 h, read-out: MBC>99.9
# Escherichia coli [19] = test: Antimicrobial activity against Escherichia coli K99 after 24 hrs by NCCLS-protocol based assay; assay type: functional; conditions: K99, 24 h
# Escherichia coli [20] = test: Antimicrobial activity against Escherichia coli 078 after 24 hrs by NCCLS-protocol based assay; assay type: functional; conditions: Escherichia coli, 078, 24 h
# Escherichia coli [21] = test: Bactericidal activity against Escherichia coli 078 incubated for 4 hrs followed by culture spread on agar plates and cultured overnight; assay type: functional; conditions: Escherichia coli, 078, 4 h; read-out: MBC>99.9
# Pseudomonas aeruginosa [22] = test: Antimicrobial activity against Pseudomonas aeruginosa PAO1 after 24 hrs by NCCLS-protocol based assay; assay type: functional; conditions: PAO1, 24 h
# [23] = Bactericidal activity against Salmonella pullorum C7913 incubated for 4 hrs followed by culture spread on agar plates and cultured overnight; assay type: functional, Salmonella enterica subsp. enterica serovar Pullorum; conditions: Salmonella enterica, C7913, 4 h; read-out: MBC>99.9
# Klebsiella pneumoniae [24] = test: Bactericidal activity against Klebsiella pneumoniae incubated for 4 hrs followed by culture spread on agar plates and cultured overnight; assay type: functional; conditions: read-out: MBC>99.9
# Escherichia coli [25] = test: Bactericidal activity against Escherichia coli ATCC 25922 incubated for 4 hrs followed by culture spread on agar plates and cultured overnight; assay type: functional; conditions: ATCC 25922, 4 h, read-out: MBC>99.9
# Escherichia coli [26] = test: Bactericidal activity against Escherichia coli UB1005 incubated for 4 hrs followed by culture spread on agar plates and cultured overnight; assay type: functional; conditions: UB1005, 4 h, read-out: MBC>99.9
# Pseudomonas aeruginosa [27] = test: Antimicrobial activity against Pseudomonas aeruginosa CICC 21625 clinical isolates after 24 hrs by NCCLS-protocol based assay; assay type: functional; conditions: CICC 21625, 24 h
# Escherichia coli [28] = test: Bactericidal activity against Escherichia coli K88 incubated for 4 hrs followed by culture spread on agar plates and cultured overnight; assay type: functional; conditions: K88, 4 h, read-out: MBC>99.9
# Escherichia coli [29] = test: Bactericidal activity against Escherichia coli K99 incubated for 4 hrs followed by culture spread on agar plates and cultured overnight; assay type: functional; conditions: K99, 4 h, read-out: MBC>99.9
# Salmonella typhimurium [30] = test: Bactericidal activity against Salmonella typhimurium ATCC 14028 incubated for 4 hrs followed by culture spread on agar plates and cultured overnight; assay type: functional, Salmonella enterica subsp. enterica serovar Typhimurium; conditions: Salmonella enterica, ATCC 14028, 4 h; read-out: MBC>99.9
# Pseudomonas aeruginosa [31] = test: Bactericidal activity against Pseudomonas aeruginosa PAO1 incubated for 4 hrs followed by culture spread on agar plates and cultured overnight; assay type: functional; conditions: PAO1, 4 h, read-out: MBC>99.9
# Salmonella typhimurium [32] = test: Bactericidal activity against Salmonella typhimurium C7731 incubated for 4 hrs followed by culture spread on agar plates and cultured overnight; assay type: functional, Salmonella enterica subsp. enterica serovar Typhimurium; conditions: Salmonella enterica, C7731, 4 h; read-out: MBC>99.9
MIC95 (Klebsiella pneumoniae [1]),MIC95 (Pseudomonas aeruginosa [3]),MIC95 (Salmonella typhimurium [4]),MIC95 (Escherichia coli [6]),MIC95 (Pseudomonas aeruginosa [7]),MIC95 (Salmonella typhimurium [8]),MIC95 (Escherichia coli [9]),MIC95 (Pseudomonas aeruginosa [11]),MIC95 (Pseudomonas aeruginosa [13]),MIC95 (Escherichia coli [14]),MIC95 [15],MIC95 (Acinetobacter baumannii [17]),MIC95 (Escherichia coli [19]),MIC95 (Escherichia coli [20]),Substance,MBC (Pseudomonas aeruginosa [2]),MBC (Acinetobacter baumannii [5]),MBC (Pseudomonas aeruginosa [10]),MBC (Pseudomonas aeruginosa [12]),MBC (Pseudomonas aeruginosa [16]),MBC (Pseudomonas aeruginosa [18]),further results
> 64 µM,> 64 µM,> 64 µM,> 64 µM,> 64 µM,> 64 µM,> 64 µM,> 64 µM,> 64 µM,> 64 µM,> 64 µM,> 64 µM,> 64 µM,> 64 µM,H-IKPIIKPIIKPIIKPI-NH2,> 64 µM,> 64 µM,> 64 µM,> 64 µM,> 64 µM,> 64 µM,MBC (Escherichia coli [21]): > 64 µM; MIC95 (Pseudomonas aeruginosa [22]): > 64 µM; MBC [23]: > 64 µM; MBC (Klebsiella pneumoniae [24]): > 64 µM; MBC (Escherichia coli [25]): > 64 µM; MBC (Escherichia coli [26]): > 64 µM; MIC95 (Pseudomonas aeruginosa [27]): > 64 µM; MBC (Escherichia coli [28]): > 64 µM; MBC (Escherichia coli [29]): > 64 µM; MBC (Salmonella typhimurium [30]): > 64 µM; MBC (Pseudomonas aeruginosa [31]): > 64 µM; MBC (Salmonella typhimurium [32]): > 64 µM
> 64 µM,> 64 µM,> 64 µM,> 64 µM,> 64 µM,> 64 µM,> 64 µM,> 64 µM,> 64 µM,> 64 µM,> 64 µM,> 64 µM,> 64 µM,> 64 µM,H-IKPIIKPIIKPIIKPIIKPI-NH2,> 64 µM,> 64 µM,> 64 µM,> 64 µM,> 64 µM,> 64 µM,MBC (Escherichia coli [21]): > 64 µM; MIC95 (Pseudomonas aeruginosa [22]): > 64 µM; MBC [23]: > 64 µM; MBC (Klebsiella pneumoniae [24]): > 64 µM; MBC (Escherichia coli [25]): > 64 µM; MBC (Escherichia coli [26]): > 64 µM; MIC95 (Pseudomonas aeruginosa [27]): > 64 µM; MBC (Escherichia coli [28]): > 64 µM; MBC (Escherichia coli [29]): > 64 µM; MBC (Salmonella typhimurium [30]): > 64 µM; MBC (Pseudomonas aeruginosa [31]): > 64 µM; MBC (Salmonella typhimurium [32]): > 64 µM
64 µM,> 64 µM,> 64 µM,16 µM,> 64 µM,> 64 µM,4 µM,> 64 µM,> 64 µM,1 µM,> 64 µM,4 µM,2 µM,32 µM,H-IKPIIKPIIKPIIKPIIKPIIKPIIKPIIKPI-NH2,> 64 µM,4 µM,> 64 µM,> 64 µM,> 64 µM,> 64 µM,MBC (Escherichia coli [21]): > 64 µM; MIC95 (Pseudomonas aeruginosa [22]): > 64 µM; MBC [23]: > 64 µM; MBC (Klebsiella pneumoniae [24]): > 64 µM; MBC (Escherichia coli [25]): 16 µM; MBC (Escherichia coli [26]): 4 µM; MIC95 (Pseudomonas aeruginosa [27]): > 64 µM; MBC (Escherichia coli [28]): 2 µM; MBC (Escherichia coli [29]): 4 µM; MBC (Salmonella typhimurium [30]): > 64 µM; MBC (Pseudomonas aeruginosa [31]): > 64 µM; MBC (Salmonella typhimurium [32]): > 64 µM
32 µM,> 64 µM,16 µM,16 µM,> 64 µM,16 µM,16 µM,> 64 µM,> 64 µM,4 µM,16 µM,8 µM,8 µM,16 µM,H-IRPIIRPIIRPIIRPI-NH2,> 64 µM,8 µM,> 64 µM,> 64 µM,> 64 µM,> 64 µM,MBC (Escherichia coli [21]): 32 µM; MIC95 (Pseudomonas aeruginosa [22]): > 64 µM; MBC [23]: 16 µM; MBC (Klebsiella pneumoniae [24]): 32 µM; MBC (Escherichia coli [25]): 32 µM; MBC (Escherichia coli [26]): 16 µM; MIC95 (Pseudomonas aeruginosa [27]): > 64 µM; MBC (Escherichia coli [28]): 8 µM; MBC (Escherichia coli [29]): 16 µM; MBC (Salmonella typhimurium [30]): 16 µM; MBC (Pseudomonas aeruginosa [31]): > 64 µM; MBC (Salmonella typhimurium [32]): 32 µM
